The values that follow come from patent US11147854B2, “Peptides having immunomodulatory properties” (Riptide Bioscience, Inc., priority 2018, dated 2021).

The subject of one experiment is CT26 Xenograft. In words: Mouse tumor inhibition model with and without anti-PD1 antibody (FIG. 2). The class given is in vivo. To be noted: peptide 10 mg/kg qd. The procedure: The peptides RP832C and RP185 were administered at 10 mg/kg qd. The anti-PD1 antibody was administered intraperitoneally at 200 ug twice per week.
Experiment [1] relates to macrophages from healthy controls. Nature of the experiment: Viability of peripheral blood derived macrophages from healthy volunteers (PrestoBlue assay). The class given is cell-based, human. Particulars: healthy control with low arginase:IFNg ratio of 3.6, peptides 0-100 uM, 96 hours. Here is the method:
(§1) Peripheral blood derived macrophages were cultured from healthy volunteers and scleroderma patients and cultured in MCS-F for 7 days prior to qPCR for arginasel (M2 marker) or IFNg (M1 marker), followed by treatment with RP peptides at a range of doses 0-100 uM. After 48 hours media were exchanged and cells were retreated with the peptides. After 96 hours cell viability was assayed by PrestoBlue assay. (FIG. 4A) Macrophages from a healthy control with low arginase:IFNg ratio of 3.6, were resistant to the effects of RP peptides of interest (RP182, RP185, RP832C, RP837) on viability.

Experiment [2] relates to macrophages from scleroderma patients. Nature of the experiment: Viability of peripheral blood derived macrophages from scleroderma patients (PrestoBlue assay). The class given is cell-based, human. Particulars: for macrophage viability: scleroderma (SSc) patient with raised arginase:IFNg ratio of 8.8, even at 0.01 uM, 96 hours, PrestoBlue; for effect on scleroderma macrophage samples (high arginase:IFNg) versus healthy control samples (low arginase:IFNg) (FIG. 4A-4B): FIG. 4B versus FIG. 4A; for viability of macrophages (FIG. 3): samples from human scleroderma patients, 96 hours incubation, various concentrations. Here is the method:
as §1

Turning to FFKKFFKKFK [RP185], the tumor volume result in the experiment on CT26 Xenograft is on record as “reduce tumor volume”. Further, the figures for the macrophage viability entry in experiment [1] and in experiment [2] were “resistant” and “greatly reduced viability”, respectively.
As to FWKRFVRKWR [RP837], the macrophage viability entry in experiment [1] is on record as “resistant”. Further, in experiment [2], the “effect on scleroderma macrophage samples (high arginase:IFNg) versus healthy control samples (low arginase:IFNg) (FIG. 4A-4B)” value was “selective effect”, the “viability of macrophages (FIG. 3)” value was “reduce viability” and the macrophage viability result is given as “greatly reduced viability”.
For the sequence KFRKAFKRFF [RP182], the macrophage viability result in experiment [1] is given as “resistant”; in experiment [2], “greatly reduced viability”.
On to RWKFGGFKWR [RP832C], for which, in the experiment on CT26 Xenograft, the tumor volume result is “reduce tumor volume”. Moreover, the macrophage viability result in experiment [1] is recorded as “resistant”. In experiment [2], the “effect on scleroderma macrophage samples (high arginase:IFNg) versus healthy control samples (low arginase:IFNg) (FIG. 4A-4B)” value is recorded as “selective effect”, the “viability of macrophages (FIG. 3)” value is “reduce viability” and the macrophage viability entry is on record as “greatly reduced viability”.
